# Test results taken from US10940139B2, “Compounds that interact with the Ras superfamily for the treatment of cancers, inflammatory diseases, rasopathies, and fibrotic disease” (Shy Therapeutics LLC, priority 2017, dated 2021).
# Test system: TNFα production in RAW 264.7 macrophage cell line
# Test: Mouse TNF alpha quantification assay (LPS-stimulated macrophages, ELISA)
# Assay type: cell-based
# Conditions: RAW264.7, RAW 264.7 murine leukemia virus transformed macrophage cell lines, LPS stimulation, read-out: TNF-α % Inhibition at 30 μM
row,Compound,inhibition at 30 µM [%]
1,COCCNc1nc(-c2ccccn2)nc2sc(-c3ccccc3)c(-c3ccccn3)c12 [drawing 2447],0
2,Cc1sc2c(O)nc(-c3nccn3C)nc2c1-c1ccc(F)cc1F [drawing 2448],0
3,COCCNc1nc(-c2nccn2C)nc2sc(-c3ccccc3)c(-c3ccccn3)c12 [drawing 2449],76 to 100

# Test system: IL6 production in RAW 264.7 macrophage cell line
# Test: Mouse IL6 quantification assay (LPS-stimulated macrophages, ELISA)
# Assay type: cell-based
# Conditions: RAW264.7, RAW 264.7 murine leukemia virus transformed macrophage cell lines, LPS stimulation, read-out: IL-6 % Inhibition at 30 μM
row,Compound,inhibition at 30 µM [%]
1,COCCNc1nc(-c2ccccn2)nc2sc(-c3ccccc3)c(-c3ccccn3)c12 [drawing 2447],0
2,Cc1sc2c(O)nc(-c3nccn3C)nc2c1-c1ccc(F)cc1F [drawing 2448],51 to 75
3,COCCNc1nc(-c2nccn2C)nc2sc(-c3ccccc3)c(-c3ccccn3)c12 [drawing 2449],76 to 100

# Test system: MIA-PACA2 pancreatic cancer cell lines
# Test: Cell proliferation assay (CellTiter 96 AQueous One)
# Assay type: cell-based
# Conditions: Homo sapiens, MIA PaCa-2; at 30 μM, MIA-PACA2
# Experimental: Cell lines: Tumor-derived pancreatic cancer cell lines MIA-PACA2 were purchased from ATCC and grown in complete DMEM-High Glucose medium supplemented with penicillin (100 U/mL), streptomycin (100 μg/mL), and 10% heat-inactivated FBS at 37° C. in a humidified incubator with 5% CO2.
# Method: Cells are plated at 1000 cells/well density in 96-wells plate, starved ON, and the next day tested small molecules are added to the cells in the final concentration of 30 μM with 0.3% DMSO 3 hours prior to 10% FBS addition. After serum addition cells are incubated for 6 days at 37° C. in a humidified incubator with 5% CO2. For IC50 value determination, serial dilutions of compounds were added to cells under the same conditions.
# Assay: At the end of the incubation period, cell cultures are tested using the CellTiter 96® AQueous One Solution Cell Proliferation Assay kit (Promega Corporation, Madison, Wis.) according to the manufacturer specifications. Briefly, assay is performed by adding 20 μl of the CellTiter 96 Aqueous One Solution Reagent directly to culture wells, followed by for 1-4 hours incubation at 37° C. in a humidified incubator with 5% CO2. At the end of incubation time, absorbance at 492 nm is recorded with the 96-well plate reader Eppendorf AF2200, and degree of small molecule-dependent proliferation inhibition is calculated from raw data assuming No Serum cells value as 100%.
row,Compound,inhibition at 30 µM [%]
1,COc1cc(CNc2nc(-c3ccccn3)nc3scc(-c4ccccc4)c23)ccc1OCC(N)=O,76 to 100
2,OCCn1ccc2c1CCCC2Nc1nc(-c2ccccn2)nc2scc(-c3ccccc3)c12 (stereo not drawn),76 to 100
3,Cc1[nH]nc(CCCN(C)c2nc(-c3ccccn3)nc3sc(-c4ccccc4)cc23)c1C#N,76 to 100
4,CC(=O)C1CCN(c2nc(-c3ccccn3)nc3scc(-c4ccccc4)c23)CC1,76 to 100
5,O=C(COn1ccnc1)Nc1nc(-c2ccccn2)nc2sccc12,76 to 100
6,O=C(CCc1cnn(-c2ccccc2)c1)Nc1nnc(-c2ccccn2)[nH]1 [drawing 1383],76 to 100
7,CC(C)NC(=O)Nc1cccc(C(=O)Nc2nnc(-c3ccccn3)[nH]2)c1 [drawing 1384],25 to 50
8,COc1ccc(CCC(=O)Nc2nnc(-c3ccccn3)[nH]2)cc1F [drawing 1385],1 to 25
9,O=C(Nc1nnc(-c2ccccn2)[nH]1)c1ccc2c(c1)CCO2 [drawing 1386],76 to 100
10,O=C(Cc1c[nH]c2ccccc12)Nc1nnc(-c2ccccn2)[nH]1 [drawing 1387],1 to 25
11,O=C(COc1ccc(F)cc1F)Nc1nnc(-c2ccccn2)[nH]1 [drawing 1388],51 to 75
12,O=C(Nc1nnc(-c2ccccn2)[nH]1)C1CCn2c(cnc2-c2ccccc2)C1 (stereo not drawn) [drawing 1389],1 to 25
13,COc1cccc(CC(=O)Nc2nnc(-c3ccccn3)[nH]2)c1 [drawing 1390],25 to 50
14,Cc1ccc(C(=O)Nc2nnc(-c3ccccn3)[nH]2)cc1S(C)(=O)=O [drawing 1391],51 to 75
15,O=C(CCn1ccc2ccccc21)Nc1nnc(-c2ccccn2)[nH]1 [drawing 1392],51 to 75
16,Cc1oc(-c2ccccc2)nc1C(=O)Nc1nnc(-c2ccccn2)[nH]1 [drawing 1393],76 to 100
17,O=C(Nc1nnc(-c2ccccn2)[nH]1)c1ccn(-c2ccccc2)n1 [drawing 1394],76 to 100
18,Cc1c(C(=O)Nc2nnc(-c3ccccn3)[nH]2)oc2ccccc12 [drawing 1395],76 to 100
19,CC(Oc1ccccc1Cl)C(=O)Nc1nnc(-c2ccccn2)[nH]1 (stereo not drawn) [drawing 1396],76 to 100
20,O=C(Nc1nnc(-c2ccccn2)[nH]1)c1ccn(-c2cccc(F)c2)n1 [drawing 1397],76 to 100
21,COc1ccc(CCC(=O)Nc2nnc(-c3ccccn3)[nH]2)cc1 [drawing 1398],51 to 75
22,COc1ccc2c(ccn2CC(=O)Nc2nnc(-c3ccccn3)[nH]2)c1 [drawing 1399],76 to 100
23,O=C(CCc1c[nH]c2ccccc12)Nc1nnc(-c2ccccn2)[nH]1 [drawing 1400],51 to 75
24,O=C(Nc1nnc(-c2ccccn2)[nH]1)c1ccc2ccccc2n1 [drawing 1401],25 to 50

row,Compound,inhibition at 30 µM [%]
1,Cc1ccc(CC(=O)Nc2nnc(-c3ccccn3)[nH]2)cc1 [drawing 1402],25 to 50
2,Cn1cc(-c2nc(C(=O)Nc3nnc(-c4ccccn4)[nH]3)cs2)cn1 [drawing 1403],76 to 100
3,Cc1c(C(=O)Nc2nnc(-c3ccccn3)[nH]2)oc2c1C(=O)CCC2 [drawing 1404],76 to 100
4,O=C(Nc1nnc(-c2ccccn2)[nH]1)c1ccc(CN2C(=O)CCC2=O)cc1 [drawing 1405],1 to 25
5,CN(Cc1nnc(-c2ccccc2Cl)o1)Cc1ccccc1C(F)(F)F [drawing 1406],25 to 50
6,O=C(CC1C=CCC1)Nc1nnc(-c2ccccn2)[nH]1 (stereo not drawn) [drawing 1407],51 to 75
7,COc1ccc(CC(=O)Nc2nnc(-c3ccccn3)[nH]2)cc1 [drawing 1408],76 to 100
8,O=C(Cc1cccs1)Nc1nnc(-c2ccccn2)[nH]1 [drawing 1409],1 to 25
9,O=C(Nc1nnc(-c2ccccn2)[nH]1)c1ccc(Oc2ccccc2)nc1 [drawing 1410],51 to 75
10,Cc1noc(C)c1CC(=O)Nc1nnc(-c2ccccn2)[nH]1 [drawing 1411],25 to 50
11,CC(C)(C)c1noc(CCC(=O)Nc2nnc(-c3ccccn3)[nH]2)n1 [drawing 1412],25 to 50
12,O=C(Cc1ccccc1)NCCC(=O)Nc1nnc(-c2ccccn2)[nH]1 [drawing 1413],1 to 25
13,O=C(Nc1nnc(-c2ccccn2)[nH]1)c1cccc(NC(=O)C2CCCO2)c1 (stereo not drawn) [drawing 1414],51 to 75
14,O=C(CC1CCCC1)NCC(=O)Nc1nnc(-c2ccccn2)[nH]1 [drawing 1415],1 to 25
15,O=C(Nc1nnc(-c2ccccn2)[nH]1)c1ncoc1-c1cccs1 [drawing 1416],76 to 100
16,O=C(CCNC(=O)c1ccco1)Nc1nnc(-c2ccccn2)[nH]1 [drawing 1417],76 to 100
17,CC(C)COC(C)C(=O)Nc1nnc(-c2ccccn2)[nH]1 (stereo not drawn) [drawing 1418],76 to 100
18,Cc1ccc(CC(=O)Nc2nnc(-c3ccccn3)[nH]2)cn1 [drawing 1419],51 to 75
19,CCn1nnc2cc(C(=O)Nc3nnc(-c4ccccn4)[nH]3)ccc21 [drawing 1420],51 to 75
20,O=C(Nc1nnc(-c2ccccn2)[nH]1)c1nc(N2CCOCC2)ncc1Cl [drawing 1421],76 to 100
21,O=C(Nc1nnc(-c2ccccn2)[nH]1)C1Cc2ccccc2O1 (stereo not drawn) [drawing 1422],1 to 25
22,CC(Oc1ccccc1C#N)C(=O)Nc1nnc(-c2ccccn2)[nH]1 (stereo not drawn) [drawing 1423],76 to 100
23,CC(Oc1cccc(C#N)c1)C(=O)Nc1nnc(-c2ccccn2)[nH]1 (stereo not drawn) [drawing 1424],76 to 100
24,CC(Oc1ccc(C(=O)Nc2nnc(-c3ccccn3)[nH]2)cn1)c1ccccc1 (stereo not drawn) [drawing 1425],76 to 100

row,Compound,inhibition at 30 µM [%]
1,O=C(Nc1nnc(-c2ccccn2)[nH]1)C1CCCN(c2ncccn2)C1 (stereo not drawn) [drawing 1426],76 to 100
2,O=C(Cc1ccc(F)cc1)Nc1nnc(-c2ccccn2)[nH]1 [drawing 1427],51 to 75
3,CC(OCc1ccccc1)C(=O)Nc1nnc(-c2ccccn2)[nH]1 (stereo not drawn) [drawing 1428],51 to 75
4,CC(COCc1ccccc1)C(=O)Nc1nnc(-c2ccccn2)[nH]1 (stereo not drawn) [drawing 1429],25 to 50
5,O=C(Nc1nnc(-c2ccccn2)[nH]1)C1CCCC(C(F)(F)F)C1 (stereo not drawn) [drawing 1430],76 to 100
6,O=C(COCc1ccccc1Cl)Nc1nnc(-c2ccccn2)[nH]1 [drawing 1431],76 to 100
7,O=C(Nc1nnc(-c2ccccn2)[nH]1)C1CC1c1ccc(F)cc1 (stereo not drawn) [drawing 1432],51 to 75
8,Cc1ccc(CC(=O)Nc2nnc(-c3ccccn3)[nH]2)s1 [drawing 1433],76 to 100
9,O=C(Nc1nnc(-c2ccccn2)[nH]1)c1ccc(OCC2CC2)cc1 [drawing 1434],76 to 100
10,N#Cc1cccc(OCC(=O)Nc2nnc(-c3ccccn3)[nH]2)c1 [drawing 1435],25 to 50
11,Cc1cccc(C(=O)Nc2nnc(-c3ccccn3)[nH]2)n1 [drawing 1436],51 to 75
12,CC(Oc1ccc(C#N)cc1)C(=O)Nc1nnc(-c2ccccn2)[nH]1 (stereo not drawn) [drawing 1437],76 to 100
13,O=C(COc1ccc2c(c1)CCC2)Nc1nnc(-c2ccccn2)[nH]1 [drawing 1438],1 to 25
14,O=C(Nc1nnc(-c2ccccn2)[nH]1)C1CCCN(c2cnccn2)C1 (stereo not drawn) [drawing 1439],76 to 100
15,O=C(Nc1nnc(-c2ccccn2)[nH]1)c1ccc(NC(=O)c2ccccn2)cc1 [drawing 1440],25 to 50
16,COC(=O)c1cncc(C(=O)Nc2nnc(-c3ccccn3)[nH]2)c1 [drawing 1441],25 to 50
17,CCc1ccccc1OCC(=O)Nc1nnc(-c2ccccn2)[nH]1 [drawing 1442],76 to 100
18,CC1CCc2sc(C(=O)Nc3nnc(-c4ccccn4)[nH]3)cc2C1 (stereo not drawn) [drawing 1443],76 to 100
19,Cc1nc(-c2ccccn2)sc1C(=O)Nc1nnc(-c2ccccn2)[nH]1 [drawing 1444],76 to 100
20,Cc1nc2nc(C(F)(F)F)nn2c(C)c1CC(=O)Nc1nnc(-c2ccccn2)[nH]1 [drawing 1445],51 to 75
21,COc1cccc(COCC(=O)Nc2nnc(-c3ccccn3)[nH]2)c1 [drawing 1446],51 to 75
22,COc1ccccc1C1CC1C(=O)Nc1nnc(-c2ccccn2)[nH]1 (stereo not drawn) [drawing 1447],25 to 50
23,O=C(Cn1c(=O)[nH]c2ccccc21)Nc1nnc(-c2ccccn2)[nH]1 [drawing 1448],25 to 50
24,CN(CC(=O)Nc1nnc(-c2ccccn2)[nH]1)Cc1ccccc1 [drawing 1449],51 to 75
